Experimental data: patent publication US11332485B2, “Penicillin-binding protein inhibitors” (priority 2017, dated 2022)

Tests used:
E. coli DH5α/pLBII = assay: Broth microdilution MIC assay, empty vector control strain; assay type: cell-based; conditions: Escherichia coli, read-out: E. coli DH5α/pLBII Microbiological Activity (MIC)
Summary of the method: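 CLSI broth microdilution in cation-supplemented Mueller-Hinton broth, 2-fold compound dilutions, 5×10^5 CFU/mL inoculum, 16-20 h at 37° C, MIC read visually as lowest concentration without growth. E. coli DH5α carries CTX-M15 on pLBII under Lac promoter, or empty pLBII as control.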

[1] = biological target: T1, PBP1b from Escherichia coli (Escherichia coli, UniProt P02919); assay: Radioligand competition binding assay with 14C-labeled boronic acid probe (Example 96); conditions: 14C-labeled probe 96 at 20 μM, PBP 0.1 μM; read-out: E. coli K12 PBP1b EC50
T1 construct: made in house
T1 sequence (P02919 whole entry): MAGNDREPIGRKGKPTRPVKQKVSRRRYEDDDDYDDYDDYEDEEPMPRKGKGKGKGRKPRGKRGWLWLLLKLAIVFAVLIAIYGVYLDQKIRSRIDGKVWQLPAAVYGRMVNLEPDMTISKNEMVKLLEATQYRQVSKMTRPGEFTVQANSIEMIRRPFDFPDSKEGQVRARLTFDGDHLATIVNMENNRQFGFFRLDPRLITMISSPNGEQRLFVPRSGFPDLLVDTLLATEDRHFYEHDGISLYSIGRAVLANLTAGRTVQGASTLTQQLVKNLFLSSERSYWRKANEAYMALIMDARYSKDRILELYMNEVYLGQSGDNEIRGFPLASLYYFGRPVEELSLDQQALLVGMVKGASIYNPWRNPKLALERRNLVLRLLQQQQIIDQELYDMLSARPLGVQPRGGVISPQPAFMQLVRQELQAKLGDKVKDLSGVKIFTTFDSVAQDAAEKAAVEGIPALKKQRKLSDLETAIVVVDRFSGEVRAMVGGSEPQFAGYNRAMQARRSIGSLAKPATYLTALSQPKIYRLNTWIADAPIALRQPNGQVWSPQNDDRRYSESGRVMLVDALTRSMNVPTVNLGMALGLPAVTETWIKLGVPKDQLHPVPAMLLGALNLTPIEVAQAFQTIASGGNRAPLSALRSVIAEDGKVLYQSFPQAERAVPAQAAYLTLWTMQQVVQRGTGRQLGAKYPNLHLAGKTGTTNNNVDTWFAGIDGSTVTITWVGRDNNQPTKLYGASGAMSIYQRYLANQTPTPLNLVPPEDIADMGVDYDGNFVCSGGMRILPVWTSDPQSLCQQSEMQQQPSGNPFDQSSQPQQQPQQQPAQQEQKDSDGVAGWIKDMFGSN
Summary of the method: (§1)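 Purified PBP (0.1 μM) in 20 mM Tris pH 7.5, 500 mM NaCl, 0.1% Triton X-100 preincubated 60 min with inhibitor, then 60 min with 20 μM 14C-boronic acid probe. Bound probe recovered by spin desalting and counted by scintillation; EC50 is the concentration halving probe binding.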

[2] = biological target: T2, PBP1a from Escherichia coli (Escherichia coli, UniProt P02918); assay: as above; conditions: 14C-labeled probe 96 at 20 μM, PBP 0.1 μM; read-out: E. coli K12 PBP1a EC50
T2 construct: made in house
T2 sequence (P02918 whole entry): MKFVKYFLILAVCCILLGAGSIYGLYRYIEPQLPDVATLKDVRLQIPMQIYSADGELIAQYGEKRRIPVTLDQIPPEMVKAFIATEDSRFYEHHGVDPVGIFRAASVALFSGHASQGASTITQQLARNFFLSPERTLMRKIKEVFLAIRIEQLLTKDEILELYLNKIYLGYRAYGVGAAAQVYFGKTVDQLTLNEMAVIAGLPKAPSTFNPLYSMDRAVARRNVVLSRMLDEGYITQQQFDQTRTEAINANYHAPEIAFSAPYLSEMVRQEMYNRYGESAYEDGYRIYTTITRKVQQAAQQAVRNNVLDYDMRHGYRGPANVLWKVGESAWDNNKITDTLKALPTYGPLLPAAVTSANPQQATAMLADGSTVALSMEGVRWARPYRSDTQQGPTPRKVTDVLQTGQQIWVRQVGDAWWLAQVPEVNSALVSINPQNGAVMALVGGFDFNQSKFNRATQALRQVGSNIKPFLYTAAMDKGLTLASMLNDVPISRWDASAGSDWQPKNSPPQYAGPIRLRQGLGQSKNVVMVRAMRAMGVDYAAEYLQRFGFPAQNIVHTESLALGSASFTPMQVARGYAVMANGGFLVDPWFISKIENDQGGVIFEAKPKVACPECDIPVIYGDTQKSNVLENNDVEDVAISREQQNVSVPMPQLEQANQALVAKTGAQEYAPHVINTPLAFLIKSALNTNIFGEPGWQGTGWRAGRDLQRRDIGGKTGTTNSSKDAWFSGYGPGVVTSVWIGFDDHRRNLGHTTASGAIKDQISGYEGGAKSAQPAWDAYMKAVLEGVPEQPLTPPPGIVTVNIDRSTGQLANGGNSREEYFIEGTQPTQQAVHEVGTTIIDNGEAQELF
Summary of the method: as §1

[3] = system: hyper-permeable E. coli 901C; assay: Broth microdilution MIC assay; assay type: cell-based; conditions: Escherichia coli, read-out: E. coli 901C MIC
Summary of the method: (§2)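 Visual no-growth endpoint defines the MIC. Inoculum of 5×10^5 CFU/mL in divalent-cation-supplemented Mueller-Hinton broth was exposed to 2-fold dilution series of compound, then incubated 16-20 hours at 37° C per CLSI.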

S. aureus ATCC 29213 = assay: Broth microdilution MIC assay; assay type: cell-based; conditions: Staphylococcus aureus, ATCC29213; broth microdilution, 16-20 hours at 37° C.; read-out: S. aureus 29213 MIC
Summary of the method: as §2

With `CCN1CCN(C(=O)NC(C(=O)N[C@H]2Cc3cccc(C(=O)O)c3OB2O)c2csc(N)n2)C(=O)C1=O` (stereo partly drawn) [Example 12, (3R)-3-(2-(2-aminothiazol-4-yl)-2-(4-ethyl-2,3-dioxopiperazine-1-carboxamido)acetamido)-2-hydroxy-3,4-dihydro-2H-benzo[e][1,2]oxaborinine-8-carboxylic acid] the MIC (E. coli DH5α/pLBII) was 8 to 16 µg/mL, the EC50 [1] was < 10 µM and the EC50 [2] was < 10 µM. For the same compound, the MIC [3] was < 64 µg/mL and the MIC (S. aureus ATCC 29213) was 64 to 128 µg/mL.
